Measurements reported in ChEMBL document CHEMBL1145559, “Design, synthesis and in vitro antiprotozoal activity of benzimidazole-pentamidine hybrids” (Bioorg Med Chem Lett, 2008).
The source made the active and inactive calls. The rule behind the calls is not given here.

Legend:
Plasmodium berghei [1] = assay: Antiprotozoal activity against Plasmodium berghei; assay type: functional, organism-based
Trichomonas vaginalis = assay: Antiprotozoal activity against Trichomonas vaginalis; assay type: functional, organism-based
Giardia intestinalis = assay: Antiprotozoal activity against Giardia lamblia; assay type: functional, organism-based; conditions: Giardia duodenalis
Leishmania mexicana = assay: Antiprotozoal activity against Leishmania mexicana; assay type: functional, organism-based
Entamoeba histolytica = assay: Antiprotozoal activity against Entamoeba histolytica; assay type: functional, organism-based
Plasmodium berghei [2] = assay: Antiprotozoal activity against Plasmodium berghei at 100 uM; assay type: functional
Plasmodium berghei [3] = assay: Antiprotozoal activity as cell damage against Plasmodium berghei; assay type: functional, organism-based

Structure (SMILES)	IC50 (Plasmodium berghei [1])	IC50 (Trichomonas vaginalis)	IC50 (Giardia intestinalis)	IC50 (Leishmania mexicana)	IC50 (Entamoeba histolytica)	Activity (Plasmodium berghei [2])	inhibition at 100 µM (Plasmodium berghei [2])	Activity (Plasmodium berghei [3])
COc1cc(-c2nc3cc([N+](=O)[O-])ccc3[nH]2)ccc1OCCCCCOc1ccc(-c2nc3cc([N+](=O)[O-])ccc3[nH]2)cc1OC	25.9 µM	0.794 µM	3.4 µM	16.8 µM	12.1 µM	–	–	–
COc1cc(-c2nc3cc(C)ccc3[nH]2)ccc1OCCCCCOc1ccc(-c2nc3cc(C)ccc3[nH]2)cc1OC	–	1.02 µM	0.372 µM	> 50 µM	4.5 µM	inactive	–	–
COc1cc(-c2nc3cc(C(F)(F)F)ccc3[nH]2)ccc1OCCCCCOc1ccc(-c2nc3cc(C(F)(F)F)ccc3[nH]2)cc1OC	63.1 µM	–	–	> 50 µM	–	–	–	–
O=[N+]([O-])c1ccc2[nH]c(-c3ccc(OCCCCCOc4ccc(-c5nc6cc([N+](=O)[O-])ccc6[nH]5)cc4)cc3)nc2c1	100 µM	3.58 µM	7.41 µM	> 50 µM	10.2 µM	–	46%	–
Cc1ccc2[nH]c(-c3ccc(OCCCCCOc4ccc(-c5nc6cc(C)ccc6[nH]5)cc4)cc3)nc2c1	100 µM	4.16 µM	4.89 µM	0.368 µM	0.153 µM	–	43%	–
COc1ccc2[nH]c(-c3ccc(OCCCCCOc4ccc(-c5nc6cc(OC)ccc6[nH]5)cc4OC)c(OC)c3)nc2c1	24 µM	6.29 µM	5.19 µM	> 50 µM	0.284 µM	–	–	–
c1ccc2[nH]c(-c3ccc(OCCCCCOc4ccc(-c5nc6ccccc6[nH]5)cc4)cc3)nc2c1	100 µM	3.18 µM	1.84 µM	1.06 µM	0.436 µM	–	37%	–
COc1ccc2[nH]c(-c3ccc(OCCCCCOc4ccc(-c5nc6cc(OC)ccc6[nH]5)cc4)cc3)nc2c1	34.6 µM	0.164 µM	0.435 µM	0.712 µM	0.109 µM	–	–	–
COc1cc(-c2nc3ccccc3[nH]2)ccc1OCCCCCOc1ccc(-c2nc3ccccc3[nH]2)cc1OC	166 µM	6.15 µM	12.7 µM	> 50 µM	5.19 µM	–	–	–
FC(F)(F)c1ccc2[nH]c(-c3ccc(OCCCCCOc4ccc(-c5nc6cc(C(F)(F)F)ccc6[nH]5)cc4)cc3)nc2c1	6.53 µM	4.96 µM	9.6 µM	> 50 µM	7.29 µM	–	–	–
N=C(N)c1ccc(OCCCCCOc2ccc(C(=N)N)cc2)cc1 [PENTAMIDINE]	–	3.81 µM	4.08 µM	9.57 µM	11.8 µM	–	–	Active
Cc1ncc([N+](=O)[O-])n1CCO [METRONIDAZOLE]	–	0.286 µM	1.29 µM	–	0.771 µM	–	–	–
